Data set [1] is described as follows: Simultaneous loading of daunorubicin and cytarabine into DMPC/Cholesterol liposomes by citrate pH-gradient. To be noted: 45° C. versus room temperature or 40° C., 300 mM citrate pH 4 inside, FIG. 5. Format: physicochemical. The protocol: (§1) At various time points after initiation of drug loading, aliquots were removed and passed through a Sephadex® G-50 spin column to separate free from encapsulated drug. To a specified volume of eluant, Triton X-100 or N-ocyl beta-D-glucopyranoside (OGP) was added to solubilize the liposomes. Following addition of detergent, the mixture was heated to the cloud point of the detergent and allowed to cool to room temperature before measurement of the absorbance or fluorescence. Drug concentrations were calculated by comparison to a standard curve. Lipid levels were measured by liquid scintillation counting.
Aliquots were removed and analyzed for drug and lipid content at designated time intervals.

Data set [2] is described as follows: Simultaneous loading of cytarabine and daunorubicin into DSPC/DSPG/Cholesterol liposomes, effect of internal Cu(II)gluconate concentration. It counts as physicochemical. The settings on record: 50° C.; for daunorubicin loading (percent encapsulation): FIG. 2B. The protocol:
(§2) Lipids were dissolved in chloroform:methanol:water (95:4:1 vol/vol/vol) and subsequently dried under a stream of nitrogen gas and placed in a vacuum pump to remove solvent. Unless otherwise specified, trace levels of radioactive lipid ^14C-DPPC was added to quantify lipid during the formulation process. The resulting lipid film was placed under high vacuum for a minimum of 2 hours. The lipid film was hydrated in the solution indicated to form multilamellar vesicles (MLVs). The resulting preparation was extruded 10 times through stacked polycarbonate filters with an extrusion apparatus (Lipex Biomembranes, Vancouver, BC) to achieve a mean liposome size between 80 and 150 nm. All constituent lipids of liposomes are reported in mole %.
as §1
Lipid films of DSPC/DSPG/Cholesterol at a mole ratio of 70:20:10 were prepared as described above in the method section. The lipid films were hydrated in the designated Cu(II)gluconate concentration and adjusted to pH 7.0 with triethanolamine (TEA). The liposomes were buffer exchanged into 300 mM sucrose, 20 mM sodium phosphate, pH 7.0 by crossflow dialysis to remove any copper(II)gluconate from the extraliposomal solution. Prior to addition of drugs, the liposomes were diluted in SPE and preheated at 50° C. for one minute. […] Aliquots were removed and analyzed for drug and lipid content at designated time intervals. The extent of daunorubicin loading was determined spectrophotometrically and cytarabine and lipid levels were determined by liquid scintillation counting.

The nature of data set [3]: Simultaneous loading of cytarabine and daunorubicin into preformed DSPC/DSPG/Cholesterol (70:20:10) liposomes, effect of temperature. Format: physicochemical. To be noted: for loading and retention in liposomes: 40° C., 100 mM Cu(II)gluconate pH 7.4 inside, FIG. 1A. As to the method: as §2, §1
Lipid films of DSPC/DSPG/Cholesterol at a mole ratio of 70:20:10 were prepared as described above in the method section. The lipid films were hydrated in 100 mM Cu(II)gluconate adjusted to pH 7.4 with triethanolamine (TEA) and extruded at 70° C. The liposomes were buffer exchanged into 300 mM sucrose, 20 mM phosphate, 1 mM EDTA (SPE), pH 7.4 by crossflow dialysis to remove any copper(II)gluconate from the extraliposomal solution. Prior to addition of drugs, the liposomes were preheated to the appropriate loading temperature for one minute. […] Aliquots were removed and analyzed for drug and lipid content at designated time intervals.

A short description of data set [4]: Simultaneous loading of FUDR and daunorubicin into preformed DSPC/DSPG/Cholesterol liposomes. Format: physicochemical. The settings on record: 50° C.; for loading in liposomes: 100 mM Cu(II)gluconate pH 7.0, FIG. 3; for retention during the course of the experiment: FIG. 3. The protocol:
as §1
FUDR and daunorubicin were loaded at 50° C. into pre-formed DSPC/DSPG/Cholesterol liposomes (70:20:10) containing 100 mM Cu(II)gluconate adjusted to pH 7.0 with triethanolamine (TEA). The liposomes were buffer exchanged into 300 mM sucrose, 40 mM phosphate, 1 mM EDTA, pH 7.0 by crossflow dialysis to remove any copper(II)gluconate from the extraliposomal solution. Prior to addition of drugs, the liposomes were diluted in SPE and preheated at 50° C. for one minute. FUDR (with trace amounts of ^3H-FUDR) and daunorubicin were combined then added simultaneously to the pre-heated liposomes. FUDR was added at a drug concentration of 60 μmol/mL and daunorubicin was added at a drug-to-lipid mole ratio of 0.1:1. […] Aliquots were removed and analyzed for drug and lipid content at designated time intervals. The extent of daunorubicin loading was determined spectrophotometrically and FUDR and lipid levels were determined by liquid scintillation counting.

A short description of data set [5]: Simultaneous loading of gemcitabine and doxorubicin into preformed liposomes. It counts as physicochemical. The settings on record: for loading and retention in liposomes: 60° C., DSPC/DSPG/Cholesterol 70:20:10, FIG. 4C; for simultaneous loading in high cholesterol-containing liposomes: DMPC/Cholesterol liposomes. The protocol:
as §1
Gemcitabine and doxorubicin were loaded into DSPC/DSPG/Cholesterol liposomes at 37° C., 50° C. and 60° C. […] The lipid films were hydrated in 100 mM Cu(II)gluconate, adjusted to pH 7.4 with triethanolamine (TEA) and extruded at 70° C. The liposomes were buffer exchanged into HBS, pH 7.4 by crossflow dialysis. Prior to addition of drugs, the liposomes were preheated to the appropriate loading temperature for one minute. Gemcitabine (with tracer amounts of ^3H-gemcitabine) and doxorubicin were combined then added simultaneously to the pre-heated liposomes. Gemcitabine was added to a drug concentration of 30 μmol/mL and doxorubicin was added to a drug concentration of 33 μmol/mL. […] Aliquots were removed and analyzed for drug and lipid content at designated time intervals. The extent of doxorubicin loading was determined spectrophotometrically and gemcitabine and lipid levels were determined by liquid scintillation counting.

Data set [6] can be described thus: Simultaneous loading of irinotecan and floxuridine into low cholesterol DSPC/DSPG/Cholesterol liposomes (data not shown). Format: physicochemical. To be noted: low cholesterol-containing DSPC/DSPG/Cholesterol liposomes.
Data set [7] in a line: Simultaneous loading of FUDR and cpt-11 into DSPC/Cholesterol (high-cholesterol) liposomes. It counts as physicochemical. To be noted: 50° C.; for loading in liposomes: DSPC/Cholesterol, 100 mM Cu(II)gluconate pH 7.0; for drug ratio of FUDR-to-cpt-11 during the course of the experiment: FIG. 6. As to the method: as §1
Lipid films of DSPC/Cholesterol at a mole ratio of 55:45 were prepared as previously described and then hydrated in 100 mM Cu(II)gluconate, adjusted to pH 7.0 with triethanolamine (TEA). The liposomes were buffer exchanged into SPE, pH 7.0. Prior to addition of drugs, the liposomes were preheated to 50° C. for one minute. FUDR (with tracer amounts of ^3H-FUDR) and cpt-11 were combined then added simultaneously to the pre-heated liposomes. FUDR was added to a final drug concentration of 110 μmol/mL and cpt-11 was added to a final drug concentration of 7.5 μmol/mL. The liposomes and drugs were incubated for one hour to allow for the passive uptake of FUDR concurrent with the active uptake of Irinotecan. Aliquots were removed and analyzed for drug and lipid content at designated time intervals. The extent of cpt-11 loading was determined spectrophotometrically and FUDR and lipid levels were determined by liquid scintillation counting.

The conditions of data set [8]: passive then Na+/K+ gradient with valinomycin; cited from earlier work.
The conditions of data set [9]: co-loaded with mitoxantrone in a single liposome; cited from earlier work.
Where [10] appears, read: 37° C., DSPC/DSPG/Cholesterol 70:20:10, FIG. 4A.
[11] abbreviates: 50° C., DSPC/DSPG/Cholesterol 70:20:10, FIG. 4B.

Regarding `COc1cccc2c1C(=O)c1c(O)c3c(c(O)c1C2=O)C[C@@](O)(C(C)=O)C[C@@H]3O[C@H]1C[C@H](N)[C@H](O)[C@H](C)O1` [daunorubicin], the simultaneous loading efficiency result in data set [1] is recorded as “more efficient”. In addition, the “daunorubicin loading (percent encapsulation)” value in data set [2] (25 mM copper gluconate) was “compromised”. In addition, the “daunorubicin loading (percent encapsulation)” value in data set [2] (100 mM, 75 mM and 50 mM copper gluconate) was “sufficient”. Further, the “loading and retention in liposomes” value in data set [3] is “efficiently loaded and retained”. In addition, in data set [3] (50° C., FIG. 1B), the loading in liposomes entry is “load to adequate levels” and the “retention in liposomes during the experiment” value was “effectively retained”. Moreover, in [3] (60° C., FIG. 1C), the loading in liposomes entry is on record as “loads at this temperature” and the retention in liposomes result is given as “not well-retained”. In data set [4], the loading in liposomes entry is recorded as “loaded to sufficient levels” and the “retention during the course of the experiment” value is reported as “well maintained”.
For the compound `Nc1ccn([C@@H]2O[C@H](CO)[C@@H](O)[C@@H]2O)c(=O)n1` [cytarabine], the “cytarabine loading during simultaneous uptake of daunorubicin” value in [2] (25, 50, 75 and 100 mM Cu(II)gluconate, FIG. 2A) is listed as “sufficient”. Also, the “extent of cytarabine loading” value in data set [2] (25 and 50 mM versus 75 mM and 100 mM Cu(II)gluconate, FIG. 2A) was “improved”. Also, in data set [3], the “loading and retention in liposomes” value was “less than desirable”. Also, in data set [3] (50° C., FIG. 1B), the loading in liposomes entry is “load to adequate levels” and the “retention in liposomes during the experiment” value is recorded as “effectively retained”. The loading in liposomes result in data set [3] (60° C., FIG. 1C) was “compromised compared to loading at 50 °C”.
Turning to `Nc1ccn([C@@H]2O[C@H](CO)[C@@H](O)C2(F)F)c(=O)n1` [gemcitabine, Gemcitabine], the loading in liposomes entry in data set [5] (setting [10]) is given as “could load effectively”. The loading in liposomes result in data set [5] (setting [11]) is “load to minimal levels and then quickly leaks”. In [5], the “loading and retention in liposomes” value is “Optimal loading and retention”; the “simultaneous loading in high cholesterol-containing liposomes” value is listed as “hindered by aggregation”.
Turning to `COc1cccc2c1C(=O)c1c(O)c3c(c(O)c1C2=O)C[C@@](O)(C(=O)CO)C[C@@H]3O[C@H]1C[C@H](N)[C@H](O)[C@H](C)O1` [doxorubicin], the results for the loading in liposomes entry in data set [5] (setting [10]) and in data set [5] (setting [11]) were “did not load to sufficient levels” and “superior to the gemcitabine loading”, respectively. Also, in [5], the “loading and retention in liposomes” value is “Optimal loading and retention”. Further, the “simultaneous loading in high cholesterol-containing liposomes” value in data set [5] is “hindered by aggregation”.
On to `O=c1[nH]c(=O)n([C@H]2C[C@H](O)[C@@H](CO)O2)cc1F` [FUDR, Floxuridine], for which the loading in liposomes entry in data set [6] was “sufficient”. Moreover, in [7], the loading in liposomes result is on record as “effectively loaded” and the “drug ratio of FUDR-to-cpt-11 during the course of the experiment” value was “maintained at a sufficient level”. In data set [4], the loading in liposomes result was “loaded to sufficient levels” and the “retention during the course of the experiment” value is “well maintained”.
Regarding `CN(Cc1cnc2nc(N)nc(N)c2n1)c1ccc(C(=O)N[C@@H](CCC(=O)O)C(=O)O)cc1` [methotrexate], the available drug encapsulated in data set [8] is on record as 33%.
For the compound `CC[C@]1(O)C[C@H]2CN(CCc3c([nH]c4ccccc34)[C@@](C(=O)OC)(c3cc4c(cc3OC)N(C=O)[C@H]3[C@@](O)(C(=O)OC)[C@H](OC(C)=O)[C@]5(CC)C=CCN6CC[C@]43[C@@H]65)C2)C1` [vincristine], the “release of entrapped drug in vivo” value in [9] is listed as “rapid release”.
As for `CCc1c2c(nc3ccc(OC(=O)N4CCC(N5CCCCC5)CC4)cc13)-c1cc3c(c(=O)n1C2)COC(=O)[C@]3(O)CC` [cpt-11, irinotecan], in [6], the loading in liposomes result is recorded as “sufficient”. Also, in [7], the loading in liposomes result is given as “effectively loaded” and the “drug ratio of FUDR-to-cpt-11 during the course of the experiment” value is on record as “maintained at a sufficient level”.
